Experimental data as given in patent US6555566B2, “Methods and materials for treating and preventing inflammation of mucosal tissue” (Mayo Foundation for Medical Education and Research, priority 1997, dated 2003).
Values joined by “and” are separate entries in the source; they are usually repeats but may differ in a detail not shown here. Equal entries are not always repeated.

Assays:
[1] = test system: non-invasive fungus-induced rhinosinusitis patients; experiment: Amphotericin B nasal irrigation study, three month follow-up of 53 patients; assay type: in vivo, human
Excerpt: In addition to patient interviewing, CT scan analysis, visual examination, and fungal culture analysis, two types of evaluations were used to score the success of the treatment: an endoscopic evaluation and a patient symptom evaluation.

[2] = test system: non-invasive fungus-induced rhinosinusitis patients; experiment: Amphotericin B irrigations in patients without previous nasal surgery; assay type: in vivo, human
Excerpt: A person was diagnosed with non-invasive fungus-induced rhinosinusitis and instructed to perform amphotericin B irrigations twice a day.
A person was diagnosed with non-invasive fungus-induced rhinosinusitis and instructed to perform amphotericin B irrigations twice a day, which was later increased to four times a day.
A person was diagnosed with non-invasive fungus-induced rhinosinusitis and instructed to perform amphotericin B irrigations twice a day. This patient had been given intramuscular steroid shots every 3 to 8 months with the last shot being administered about seven months prior to starting the amphotericin B irrigations.

[3] = test system: non-invasive fungus-induced rhinosinusitis patient; experiment: Eosinophil count in mucosal biopsies after antifungal treatment; assay type: in vivo, human; conditions: after nine months of irrigations twice a day
Excerpt: A person was diagnosed with non-invasive fungus-induced rhinosinusitis and instructed to perform amphotericin B irrigations twice a day. After nine months of amphotericin B irrigations, the patient underwent sinus surgery for further improvement. During the surgery mucosal biopsies were collected and the eosinophil count compared to the those obtained from biopsies collected from the patient during a surgery prior to the antifungal treatment.

[4] = test system: non-invasive fungus-induced rhinosinusitis patients; experiment: Itraconazole nasal irrigations in rhinosinusitis patients; assay type: in vivo, human; parameters: symptom score before itraconazole irrigations / symptom score after itraconazole irrigations / endoscopic score, right side, before / endoscopic score, right side, after / endoscopic score, left side, before / endoscopic score, left side, after: scale not given here
Method: Three non-invasive fungus-induced rhinosinusitis patients (person, person, and person) were instructed to perform nasal irrigation with an itraconazole solution. The itraconazole solution contained about 100 mg of itraconazole per L of solution (10% PEG-400 in sterile water) and was prepared as described herein. […] Each patient reported marked improvement in symptoms within two weeks of starting the itraconazole irrigations (symptom scores: −1 to +2 and −1 to +1).
After treatment with itraconazole, that patient reported symptom improvement (symptom score: from −1 to 0).

chronic asthma patients = experiment: Chronic asthma symptoms in patients of the amphotericin B irrigation study
Method: One hundred and thirty-two consecutive rhinosinusitis patients were entered into a study to evaluate the use of an antifungal agent to treat non-invasive fungus-induced rhinosinusitis. […] The 125 non-invasive fungus-induced rhinosinusitis patients were started on an antifungal treatment of about 20 mL of an amphotericin B solution per nostril, two to four times daily for at least three months. The concentration of the amphotericin B solution was about 100 mg per liter of saline or water. A 20 mL bulb was used by the patient to mucoadminister the amphotericin B solution into the patient's nasal-paranasal anatomy. Data were compiled for 53 of the patients who had returned for their three month follow-up analysis.

[5] = test system: non-invasive fungus-induced rhinosinusitis patients; experiment: Patient data collected during a one week period (amphotericin B nasal irrigations); assay type: in vivo, human; parameters: Endoscopy Score B / Endoscopy Score A / Symptom Score B: scale not given here
Excerpt: Only previously seen patients that were instructed to use the antifungal amphotericin B nasal irrigations were entered into this study.
During a one week period, twenty patients returned to the physician's office (Table II). The average age of the returning patients was 47 years (range 16-74 years). The patients were using the amphotericin B irrigations for an average duration of about six months (range 1-16 months). […] In addition, some patients were using topical and systemic steroid therapy. Further, some patients were using an antibiotic nasal irrigation in addition to the antifungal irrigations. The antibacterial solution contained 80 mg gentamicin per L saline (Wilson's solution). Some patients mixed the antibacterial solution with the antifungal solution and then performed the nasal irrigations while others used each solution separately in a sequential manner. Some patients also had other diseases including asthma (15 of the 20 patients) and colitis (2 of the 20 patients).

rhinosinusitis patient = experiment: Single patient, one-sided then two-sided amphotericin B irrigation with surgery, RAST to Alternaria
Method: Only the left nasal-paranasal side, however, received surgery as well as intra-operative and post-operative treatment with about 20 mL of an amphotericin B solution (100 mg/L) two to four times daily.

[6] = after treatment, three month follow-up
[7] = after antifungal treatment, nasal irrigations 1-16 months, 1-2x day, one line per patient, r26 and r28 switched to itraconazole for the last month, r13 stopped 8 months earlier
[8] = before antifungal treatment (baseline), one line per patient
[9] = sixteen days after starting itraconazole irrigations, one patient

C[C@@H]1[C@H](O)[C@@H](C)/C=C/C=C/C=C/C=C/C=C/C=C/C=C/[C@H](O[C@@H]2O[C@H](C)[C@@H](O)[C@H](N)[C@@H]2O)C[C@@H]2O[C@](O)(C[C@@H](O)C[C@@H](O)[C@H](O)CC[C@@H](O)C[C@@H](O)CC(=O)O[C@H]1C)C[C@H](O)[C@H]2C(=O)O [amphotericin B]
patients going from endoscopic evaluation stage 2 or 3 to stage 0 ([1]; after three months, about 20 mL of 100 mg/L solution per nostril, two to four times daily): 33 of the 53
patients giving themselves symptom stage 0 (baseline/no change) [1, 6]: six of the 53
patients giving themselves symptom stage 1 (good/improved) [1, 6]: three of the 53
patients giving themselves symptom stage 2 (very good/free of symptoms) [1, 6]: 44 of the 53
patients that did not respond to the treatment (of 53) ([1]; endoscopic evaluation after three months): nine
non-responding patients whose mucus fungal organisms were resistant to the agent ([1]; five of the nine non-responders had mucus samples available): all five
CT scan finding after treatment ([1]; one patient with bilateral rhinosinusitis, no recent surgery, no steroids, 20 mL of 100 mg/L per nostril two times daily, four months): complete disappearance of opacity and symptoms characteristic of rhinosinusitis
number of different fungal species in mucus after versus before treatment ([1]; several patients, fungal organism culturing): remarkably reduced
symptom score before treatment ([2]; baseline, no previous nasal surgery, one line per patient): −1
endoscopic score after treatment ([2]; irrigations twice a day (b227 later four times a day) for fourteen, sixteen, four months): 0
eosinophil count in mucosal biopsies, all sinuses except the frontal [3]: < 5%
eosinophil count in the frontal sinus biopsy ([3]; frontal sinus obstructed, presumably not reached): 10%
local reaction to nasal irrigations ([4]; one patient (third patient)): burning sensation
patients no longer exhibiting asthma symptoms who stopped taking their asthma medication (chronic asthma patients; after starting treatment): 26 of the 28
asthmatic patients declaring improvement or complete elimination of asthma symptoms (chronic asthma patients; after three months of nasal irrigation treatment of Example 2): 28 of the 37
patients with improved pulmonary function test after versus before treatment (chronic asthma patients; four of the 28 improved patients tested): all four
patients taking steroids after starting treatment (chronic asthma patients; of twenty-three patients on systemic steroids for asthma before): none
Endoscopy Score A [5, 7]: 0 (10×) and 3 (5×) and 1 (2×)
Symptom Score A [5, 7]: +1 (6×) and +2 (6×) and 0 (6×) and −2 and 1
Endoscopy Score B [5, 8]: 1 (3×) and 2 (5×) and 3 (10×) and 0
Symptom Score B [5, 8]: −1 (14×) and −2 (6×)
endoscopic evaluation, overall outcome of the twenty patients ([5]; nasal irrigations, average about six months): most patients had an observable improvement
RAST reading to Alternaria (rhinosinusitis patient; after surgery on the right side and irrigation of both sides for about seven weeks): 4.47 KU/L
state of the treated left paranasal sinuses (rhinosinusitis patient; at every post-operative visit, surgery plus irrigation of the left side): clear of disease
RAST reading to Alternaria (rhinosinusitis patient; before treatment (baseline)): 6.23 KU/L
RAST reading to Alternaria (rhinosinusitis patient; only left side operated and irrigated (about 20 mL, 100 mg/L, two to four times daily), eight to ten weeks after symptoms disappeared on the left): 7.16 KU/L
patient state by CT scan (rhinosinusitis patient; six months after the last surgery, both sides irrigated): symptom-free and disease-free
RAST reading to Alternaria (rhinosinusitis patient; six months post-operation, only left side treated, rhinosinusitis diagnosed on the right): 10.0 KU/L

CCC(C)n1ncn(-c2ccc(N3CCN(c4ccc(OCC5COC(Cn6cncn6)(c6ccc(Cl)cc6Cl)O5)cc4)CC3)cc2)c1=O (centres unmarked) [itraconazole]
symptom score after itraconazole irrigations ([4]; about 100 mg per L (10% PEG-400 in sterile water), within two weeks, patients not responding to amphotericin B, one line per patient): +2 and +1 and 0
symptom score before itraconazole irrigations ([4]; baseline, one line per patient): −1
endoscopic score, left side, before ([4]; baseline, one patient): 1
endoscopic score, right side, before ([4]; baseline, one patient): 1
local reaction to nasal irrigations ([4]; human, in vivo): did not have any adverse local reaction
endoscopic score, left side, after [4, 9]: 1
endoscopic score, right side, after [4, 9]: 0
